Assay results published in patent publication US8895602B1, “6-pyrazolylamido-3-substituted azabicyclo[3.1.0]hexane compounds as calcium channel inhibitors” (Korea Institute of Science and Technology, priority 2013, dated 2014).

Tests used:
[1] = target: α1H T-type calcium channel (Homo sapiens, UniProt O95180); experiment: Antagonistic activity against T-type calcium channel, α1H; assay type: cell-based
Protocol: (§8) Test of Antagonistic Activity Against T-Type Calcium Channel
2) Measurement of T-Type Calcium Channel Activity in HEK293 Cells by Whole-Cell Patch Clamp Electrophysiology
The culture medium was replaced with a fresh one every 3-4 days and the cells were subcultured every week. […] The T-type calcium channel current at single cell level was measured by whole-cell patch clamp electrophysiology using an EPC-9 amplifier (HEKA, Germany). For the T-type calcium channel activity measurement, an extracellular solution (140 mM NaCl, 2 mM CaCl2, 10 mM HEPES, pH 7.4) and an intracellular solution (130 mM KCl, 10 mM HEPES, 11 mM EGTA, 5 mM MgATP, pH 7.4) were used. […] Thereafter, the cell membrane potential was fixed to −100 mV and the inward current evoked by the T-type calcium channel activity was measured every 10 seconds at hypopolarization with −30 mV (50 ms duration). Each compound was dissolved in 100% dimethyl sulfoxide (DMSO) to make a 10 mM stock solution. […] More specifically, the cells were treated with each compound together with the extracellular solution for 30-60 seconds and the % inhibition was determined by calculating the inhibition of peak current induced by the compound.

[2] = tested on: human esophageal carcinoma (KYSE410) cells; experiment: Anticancer screening, SRB assay, KYSE410; assay type: cell-based; conditions: KYSE410, 48 hours incubation, concentration not given
Protocol: (§1) Anticancer Effect Screening Test
(§2) All the cancer cells are human-derived tumor cells and were acquired from the Korean Cell Line Bank.
(§3) 2) Measurement of Anticancer Activity
(§4) After incubation in a CO2 incubator for 24 hours, the culture medium was removed and 100 μL of the test compound which was diluted 4-fold was added. After incubation for 48 hours, the cells were fixed by adding 100 μL of formalin solution. Then, the cells were washed 5 times with distilled water and dried at room temperature. After adding 100 μL of 0.4% SRB solution and keeping at room temperature for 30 minutes, the cells were washed 5 times with 1% acetic acid and dried at room temperature.
(§5) To evaluate the anticancer activity of the test compound against the cancer cells, the GI50 value was calculated according to Equation 1 or 2. Anticancer activity (%)=[…] Equation 1
(§6) In Equation 1, T0 represents the number of cells before adding the test compound and T2 represents the number of cells after adding the test compound and incubating for 48 hours. Anticancer activity (%)=[…] Equation 2
(§7) The inhibition of cancer cell growth by the test compound (% inhibition) was determined by data regression using the Lotus program from the values calculated according to Equation 1 and the IC50 value was calculated from the % inhibition.

[3] = tested on: human liver carcinoma (HepG2) cells; experiment: Anticancer screening, SRB assay, HepG2; assay type: cell-based; conditions: HepG2, 48 hours incubation, concentration not given
Protocol: as §1, §2, §3, §4, §5, §6, §7

[4] = tested on: human fibroblastoma (HT-1080) cells; experiment: Anticancer screening, SRB assay, HT-1080; assay type: cell-based; conditions: HT1080, 48 hours incubation, concentration not given
Protocol: as §1, §2, §3, §4, §5, §6, §7

[5] = tested on: human glioma (U87-MG) cells; experiment: Anticancer screening, SRB assay, U87-MG; assay type: cell-based; conditions: 48 hours incubation, concentration not given
Protocol: as §1, §2, §3, §4, §5, §6, §7

[6] = tested on: human lung carcinoma (A-549) cells; experiment: Anticancer screening, SRB assay, A-549; assay type: cell-based; conditions: A 549, 48 hours incubation, concentration not given
Protocol: as §1, §2, §3, §4, §5, §6, §7

[7] = target: T1, α1G T-type calcium channel (Homo sapiens, UniProt O43497); experiment: Antagonistic activity against T-type calcium channel (FDSS6000 / whole-cell patch clamp in HEK293 cells), α1G; assay type: cell-based
T1 construct: host or cells: HEK293
Protocol: as §8
Then, as secondary screening, the effective inhibitory concentration IC50 for human HEK293 cells was obtained by measuring the potential of Ca^2+.
1) Measurement of T-Type Calcium Channel Activity Using FDSS6000
Subsequently, 10 minutes prior to the FDSS6000 measurement, the cells were washed with HEPES buffer containing 10 mM CaCl2 once and the final volume was adjusted to 81 μL. Separately from the 96-well plate with the cells, two 96-well drug plates were prepared, one containing KCl (final concentration 75 mM) for activating the T-type calcium channel and the other containing the blocking agent (test compound). […] For the FDSS6000 measurement, after baseline recording for 20 seconds, the cells were pretreated with the test compound for 75 seconds and the change in intracellular calcium concentration induced by KCl was measured. The % inhibition by the test compound was calculated as integrated values of the 340/380 ratio relative to the untreated control group. […]
For calcium imaging, the cells were selectively exposed to light of excitation wavelengths (340 nm and 380 nm) with four xenon lamps installed in the FDSS6000 device using a computer-controlled filter wheel. The emitted fluorescence light that passed through a 515 nm long-pass filter was passed through a freezing CCD camera mounted in the device. […]

[8] = tested on: human prostate carcinoma (LNCaP) cells; experiment: Anticancer screening, SRB assay, LNCaP; assay type: cell-based; conditions: 48 hours incubation, concentration not given
Protocol: as §1, §2, §3, §4, §5, §6, §7

[9] = tested on: human breast cancer (MCF-7) cells; experiment: Anticancer screening, SRB assay, MCF-7; assay type: cell-based; conditions: MCF-7, 48 hours incubation, concentration not given
Protocol: as §1, §2, §3, §4, §5, §6, §7

[10] = spinal nerve ligation model; cited from earlier work

α1H T-type calcium channel, sequence (O95180 whole entry): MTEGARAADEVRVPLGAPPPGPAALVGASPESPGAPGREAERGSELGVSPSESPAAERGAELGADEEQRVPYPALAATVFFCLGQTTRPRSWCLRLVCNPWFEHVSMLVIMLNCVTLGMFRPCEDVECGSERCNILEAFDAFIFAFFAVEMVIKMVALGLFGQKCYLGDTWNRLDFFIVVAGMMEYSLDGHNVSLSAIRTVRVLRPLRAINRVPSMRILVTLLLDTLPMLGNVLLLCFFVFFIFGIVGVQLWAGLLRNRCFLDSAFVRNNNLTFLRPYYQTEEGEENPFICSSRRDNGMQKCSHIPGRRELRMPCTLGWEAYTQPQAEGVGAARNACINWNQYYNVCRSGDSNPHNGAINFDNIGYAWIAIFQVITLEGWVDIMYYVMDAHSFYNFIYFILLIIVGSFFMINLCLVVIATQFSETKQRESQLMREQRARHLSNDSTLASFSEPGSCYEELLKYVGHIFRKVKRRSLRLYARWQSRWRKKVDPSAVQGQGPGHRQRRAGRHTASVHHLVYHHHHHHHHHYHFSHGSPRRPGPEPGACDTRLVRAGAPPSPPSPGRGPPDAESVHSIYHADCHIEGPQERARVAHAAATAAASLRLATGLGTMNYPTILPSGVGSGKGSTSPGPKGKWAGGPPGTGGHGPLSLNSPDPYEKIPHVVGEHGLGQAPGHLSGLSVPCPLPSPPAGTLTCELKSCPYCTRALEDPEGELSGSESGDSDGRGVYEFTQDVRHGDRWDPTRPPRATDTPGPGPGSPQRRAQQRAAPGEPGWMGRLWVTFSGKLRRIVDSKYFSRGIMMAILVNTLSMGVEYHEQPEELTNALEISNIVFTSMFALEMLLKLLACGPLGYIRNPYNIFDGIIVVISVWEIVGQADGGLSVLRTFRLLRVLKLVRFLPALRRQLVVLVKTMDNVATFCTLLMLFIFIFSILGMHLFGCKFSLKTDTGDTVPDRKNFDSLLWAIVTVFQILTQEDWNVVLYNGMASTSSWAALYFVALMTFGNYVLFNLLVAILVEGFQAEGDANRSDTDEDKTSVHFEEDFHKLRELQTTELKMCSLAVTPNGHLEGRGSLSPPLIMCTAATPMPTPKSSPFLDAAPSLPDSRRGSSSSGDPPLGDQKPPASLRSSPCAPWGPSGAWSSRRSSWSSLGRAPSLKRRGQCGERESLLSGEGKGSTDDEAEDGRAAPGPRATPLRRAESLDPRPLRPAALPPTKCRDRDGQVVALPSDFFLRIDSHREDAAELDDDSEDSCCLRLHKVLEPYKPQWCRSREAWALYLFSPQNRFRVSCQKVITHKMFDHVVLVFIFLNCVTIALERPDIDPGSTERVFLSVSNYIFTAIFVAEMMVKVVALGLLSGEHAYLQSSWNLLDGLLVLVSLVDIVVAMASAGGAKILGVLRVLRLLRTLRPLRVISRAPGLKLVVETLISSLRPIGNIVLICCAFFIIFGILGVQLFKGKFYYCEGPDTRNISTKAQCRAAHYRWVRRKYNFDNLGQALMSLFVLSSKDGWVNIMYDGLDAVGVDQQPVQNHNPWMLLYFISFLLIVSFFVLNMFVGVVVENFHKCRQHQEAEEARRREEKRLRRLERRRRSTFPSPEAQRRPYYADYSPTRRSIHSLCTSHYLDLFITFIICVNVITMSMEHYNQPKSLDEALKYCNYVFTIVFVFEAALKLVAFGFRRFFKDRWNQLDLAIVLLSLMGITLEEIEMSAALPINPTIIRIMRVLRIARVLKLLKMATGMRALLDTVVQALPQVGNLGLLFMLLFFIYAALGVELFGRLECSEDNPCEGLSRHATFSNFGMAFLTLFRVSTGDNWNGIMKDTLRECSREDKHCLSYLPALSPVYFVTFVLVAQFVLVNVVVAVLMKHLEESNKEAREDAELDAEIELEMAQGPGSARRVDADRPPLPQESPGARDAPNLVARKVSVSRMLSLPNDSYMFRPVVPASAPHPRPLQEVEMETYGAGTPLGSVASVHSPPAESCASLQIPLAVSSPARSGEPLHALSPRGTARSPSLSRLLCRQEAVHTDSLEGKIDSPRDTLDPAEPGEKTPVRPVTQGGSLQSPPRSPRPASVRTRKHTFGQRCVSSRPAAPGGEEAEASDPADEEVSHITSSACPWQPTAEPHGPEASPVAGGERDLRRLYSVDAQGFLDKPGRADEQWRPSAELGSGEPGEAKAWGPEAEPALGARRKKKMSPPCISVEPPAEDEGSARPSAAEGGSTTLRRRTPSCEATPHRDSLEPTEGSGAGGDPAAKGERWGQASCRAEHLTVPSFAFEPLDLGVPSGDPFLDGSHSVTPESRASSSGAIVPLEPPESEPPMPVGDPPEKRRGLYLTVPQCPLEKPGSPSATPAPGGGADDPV
T1 sequence (O43497 whole entry): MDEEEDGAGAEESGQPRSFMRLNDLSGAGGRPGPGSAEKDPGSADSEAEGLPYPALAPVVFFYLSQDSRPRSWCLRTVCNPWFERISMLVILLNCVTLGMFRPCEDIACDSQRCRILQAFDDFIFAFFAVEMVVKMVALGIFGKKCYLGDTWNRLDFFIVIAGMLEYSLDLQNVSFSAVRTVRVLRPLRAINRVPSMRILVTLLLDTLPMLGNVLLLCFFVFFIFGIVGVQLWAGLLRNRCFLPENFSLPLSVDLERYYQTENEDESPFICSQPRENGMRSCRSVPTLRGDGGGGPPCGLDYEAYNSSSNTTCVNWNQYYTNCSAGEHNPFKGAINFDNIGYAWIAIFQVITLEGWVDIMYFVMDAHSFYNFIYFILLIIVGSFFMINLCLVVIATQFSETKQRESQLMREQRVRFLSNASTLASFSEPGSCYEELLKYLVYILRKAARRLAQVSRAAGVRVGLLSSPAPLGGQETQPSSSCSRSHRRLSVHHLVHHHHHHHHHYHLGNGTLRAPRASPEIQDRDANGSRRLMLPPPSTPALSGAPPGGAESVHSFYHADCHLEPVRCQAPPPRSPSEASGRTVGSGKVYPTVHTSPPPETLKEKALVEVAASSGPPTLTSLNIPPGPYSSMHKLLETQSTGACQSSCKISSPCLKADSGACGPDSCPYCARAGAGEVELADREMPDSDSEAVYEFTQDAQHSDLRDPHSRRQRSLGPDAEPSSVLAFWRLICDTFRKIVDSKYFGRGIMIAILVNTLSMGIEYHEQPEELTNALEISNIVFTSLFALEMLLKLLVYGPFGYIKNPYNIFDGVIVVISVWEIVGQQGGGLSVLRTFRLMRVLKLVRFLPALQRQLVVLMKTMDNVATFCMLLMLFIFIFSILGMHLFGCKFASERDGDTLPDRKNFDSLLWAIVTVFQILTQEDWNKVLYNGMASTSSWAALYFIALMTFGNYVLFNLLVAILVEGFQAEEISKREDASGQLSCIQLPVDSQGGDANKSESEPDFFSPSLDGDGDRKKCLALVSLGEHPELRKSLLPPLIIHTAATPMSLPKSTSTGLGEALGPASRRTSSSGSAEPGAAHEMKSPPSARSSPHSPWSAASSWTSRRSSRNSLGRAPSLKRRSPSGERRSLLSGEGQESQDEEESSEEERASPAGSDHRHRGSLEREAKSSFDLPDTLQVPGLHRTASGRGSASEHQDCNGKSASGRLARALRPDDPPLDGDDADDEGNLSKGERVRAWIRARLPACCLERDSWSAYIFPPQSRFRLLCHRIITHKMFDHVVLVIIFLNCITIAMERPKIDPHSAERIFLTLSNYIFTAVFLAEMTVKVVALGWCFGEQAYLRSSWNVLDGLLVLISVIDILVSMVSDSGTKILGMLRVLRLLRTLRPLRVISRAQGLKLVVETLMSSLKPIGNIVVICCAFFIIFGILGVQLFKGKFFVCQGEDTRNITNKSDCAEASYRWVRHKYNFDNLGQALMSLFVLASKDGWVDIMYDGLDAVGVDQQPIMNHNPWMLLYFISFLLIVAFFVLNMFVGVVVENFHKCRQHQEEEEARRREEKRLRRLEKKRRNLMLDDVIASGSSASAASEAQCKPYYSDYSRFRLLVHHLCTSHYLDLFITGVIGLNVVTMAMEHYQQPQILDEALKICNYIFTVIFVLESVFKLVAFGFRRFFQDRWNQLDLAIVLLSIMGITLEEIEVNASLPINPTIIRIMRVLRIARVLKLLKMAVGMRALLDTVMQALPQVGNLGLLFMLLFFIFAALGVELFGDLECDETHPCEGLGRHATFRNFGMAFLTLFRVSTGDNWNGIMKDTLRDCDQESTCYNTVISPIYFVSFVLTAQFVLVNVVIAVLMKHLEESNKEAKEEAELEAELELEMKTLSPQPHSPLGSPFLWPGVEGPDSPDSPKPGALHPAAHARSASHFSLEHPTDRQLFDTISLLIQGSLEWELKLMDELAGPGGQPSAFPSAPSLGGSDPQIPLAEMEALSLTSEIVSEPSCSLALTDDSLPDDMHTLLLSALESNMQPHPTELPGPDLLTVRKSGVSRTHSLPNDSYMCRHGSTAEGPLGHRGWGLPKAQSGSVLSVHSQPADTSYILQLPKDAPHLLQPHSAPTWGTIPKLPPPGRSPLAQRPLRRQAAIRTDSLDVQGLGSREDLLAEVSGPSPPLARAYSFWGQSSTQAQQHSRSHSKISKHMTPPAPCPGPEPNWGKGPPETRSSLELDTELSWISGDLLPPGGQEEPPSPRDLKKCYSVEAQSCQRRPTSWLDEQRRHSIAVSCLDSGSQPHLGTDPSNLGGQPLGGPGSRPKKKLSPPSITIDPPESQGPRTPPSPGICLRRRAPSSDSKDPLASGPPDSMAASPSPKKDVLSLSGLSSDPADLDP

| inhibition at 10 µM [1] [%] | inhibition at 10 µM [7] [%] | SMILES | % inhibition for cancer cells KYSE410 [2] [%] | % inhibition for cancer cells HepG2 [3] [%] | % inhibition for cancer cells HT1080 [4] [%] | % inhibition for cancer cells U87-MG [5] [%] | % inhibition for cancer cells A 549 [6] [%] | % inhibition for cancer cells LNCaP [8] [%] | % inhibition for cancer cells MCF-7 [9] [%] | effect on mechanically and thermally induced pain [10] |
| --- | --- | --- | --- | --- | --- | --- | --- | --- | --- | --- |
| 64.6 | 60.5 | CC(C)Cc1cc(CNC(=O)C2C3CN(CCc4ccc(C(F)(F)F)cc4)CC32)nn1-c1ccccc1 (centres unmarked) [Compound 3, 5-Isobutyl-1-phenyl-3-{3-[4-(trifluoromethyl)phenylethyl]-3-azabicyclo[3.1.0]hexane-6-carboxamido}methyl-1H-pyrazole] | 92.33 | 67.82 | 87.64 | 89.21 | 75.64 | 92.29 | 85.44 |  |
|  |  | C#Cc1cccc(Nc2ncnc3cc(OCCOC)c(OCCOC)cc23)c1 [Tarceva, reference compound] | 36.30 |  | 83.07 | 55.96 |  | 47.12 |  |  |
|  |  | CC(C)Cc1cc(C(=O)NCC2C3CN(CCC(C)(C)C)CC23)nn1-c1ccccc1 (centres unmarked) [Compound 7, 3-{2-[3-(3,3-Dimethylbutyl)-3-azabicyclo[3.1.0]hexane-6-yl]methyl}carbamoyl-5-isobutyl-1-phenyl-1H-pyrazole] | 86.46 | 98.18 | 88.79 | 89.43 | 93.14 | 49.98 | 94.67 |  |
|  |  | CC(C)Cc1cc(CNC(=O)C2C3CN(Cc4ccccc4)CC32)nn1-c1ccccc1 (centres unmarked) [Compound 2, 3-(3-Benzyl-3-azabicyclo[3.1.0]hexane-6-carboxamido)methyl-5-isobutyl-1-phenyl-1H-pyrazole] | 88.75 |  | 87.79 | 86.45 |  | 84.90 |  |  |
|  |  | Cc1ccc(NC(=O)c2ccc(CN3CCN(C)CC3)cc2)cc1Nc1nccc(-c2cccnc2)n1 [Gleevec, reference compound] | 75.92 | 90.81 | 92.04 | 86.51 | 94.17 | 82.56 | 95.19 |  |
|  |  | CC(C)Cc1cc(CNC(=O)C2C3CN(CCC(C)(C)C)CC32)nn1-c1ccccc1 (centres unmarked) [Compound 1, 3-[3-(3,3-Dimethylbutyl)-3-azabicyclo[3.1.0]hexane-6-carboxamido]methyl-5-isobutyl-1-phenyl-1H-pyrazole] | 62.50 | 87.91 | 62.86 | 48.10 | 94.52 | 34.74 | 94.86 |  |
|  |  | COCC(=O)O[C@]1(CCN(C)CCCc2nc3ccccc3[nH]2)CCc2cc(F)ccc2[C@@H]1C(C)C [mibefradil] |  |  |  |  |  |  |  | inhibit mechanically and thermally induced pain in a dose-dependent manner |
|  |  | CCC1(C)CC(=O)NC1=O (centres unmarked) [ethosuximide] |  |  |  |  |  |  |  | inhibit mechanically and thermally induced pain in a dose-dependent manner |
| 89.9 | 81 | CC(C)Cc1cc(CNC(=O)C2C3CN(C(=O)Cc4ccccc4)CC32)nn1-c1ccccc1 (centres unmarked) [Compound 5, 5-Isobutyl-1-phenyl-3-[3-(2-phenylacetyl)-3-azabicyclo[3.1.0]hexane-6-carboxamido]methyl-1H-pyrazole] | 48.62 | 89.16 | 67.10 | 45.39 | 94.61 | 62.24 | 95.24 |  |
|  |  | CC(C)Cc1cc(CNC(=O)C2C3CN(C(=O)c4ccccc4)CC32)nn1-c1ccccc1 (centres unmarked) [Compound 4, 3-(3-Benzoyl-3-azabicyclo[3.1.0]hexane-6-carboxamido)methyl-5-isobutyl-1-phenyl-1H-pyrazole] | 56.84 | 89.44 | 75.39 | 56.49 | 94.52 | 73.31 | 95.00 |  |
